Experimental data: the supplement of paper PMC10307832

What was measured:
Assay in all cases: relative viability (nuclei count vs DMSO), 5 days (fraction); higher = more cells survive
kb NB 142-70 + AZD7762 = compound: C1CSC2=C(C(=O)N1)SC3=C2C=C(C=C3)O [kb NB 142-70] + NC(=O)Nc1cc(-c2cccc(F)c2)sc1C(=O)N[C@H]1CCCNC1 [AZD7762] (partner 0.2 µM)
Summary of the method: (§1)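 Values are medians from duplicate plates. Each reflects relative viability, defined as the nuclei count of treated wells over that of vehicle wells. Lung cancer cell lines in 1536-well plates were pin-tool dosed one day after seeding with one drug alone or with a fixed anchor-drug dose plus five library-drug doses (not always all listed) in √10 steps, then fixed, stained and imaged at 4× after 5 days.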

[1] = compound: NCC(=O)Nc1ccc(-n2nc(C(F)(F)F)cc2-c2ccc3c(ccc4ccccc43)c2)cc1 + COc1cc2c(Oc3ccc(NC(=O)C4(C(=O)Nc5ccc(F)cc5)CC4)cc3F)ccnc2cc1OCCCN1CCOCC1 [Foretinib] (partner 0.25 µM)
Summary of the method: as §1

[2] = compound: C1CSC2=C(C(=O)N1)SC3=C2C=C(C=C3)O [kb NB 142-70] + CC(=O)Nc1cccc(-n2c(=O)n(C3CC3)c(=O)c3c(Nc4ccc(I)cc4F)n(C)c(=O)c(C)c32)c1 [Trametinib] (partner 0.02 µM)
Summary of the method: as §1

## NCI-H358
Kb NB 142-70 + AZD7762; first compound 0.1 µM
  relative viability: 0.437
Kb NB 142-70 + AZD7762; first compound 1 µM
  relative viability: 0.44
Kb NB 142-70 + AZD7762; first compound 3.162 µM
  relative viability: 0.295
[1]; first compound 0.02 µM
  relative viability: 0.755
[1]; first compound 0.06325 µM
  relative viability: 0.721
[1]; first compound 0.2 µM
  relative viability: 0.747
[1]; first compound 0.6325 µM
  relative viability: 0.683
[1]; first compound 2 µM
  relative viability: 0.816
[2]; first compound 0.1 µM
  relative viability: 0.117
[2]; first compound 1 µM
  relative viability: 0.103
[2]; first compound 3.162 µM
  relative viability: 0.105

## NCI-H441
Kb NB 142-70 + AZD7762; first compound 0.1 µM
  relative viability: 1.06
Kb NB 142-70 + AZD7762; first compound 1 µM
  relative viability: 1.23
Kb NB 142-70 + AZD7762; first compound 3.162 µM
  relative viability: 0.863
[1]; first compound 0.02 µM
  relative viability: 0.91
[1]; first compound 0.06325 µM
  relative viability: 1.03
[1]; first compound 0.2 µM
  relative viability: 0.879
[1]; first compound 0.6325 µM
  relative viability: 0.85
[1]; first compound 2 µM
  relative viability: 0.97
[2]; first compound 0.1 µM
  relative viability: 0.473
[2]; first compound 1 µM
  relative viability: 0.383
[2]; first compound 3.162 µM
  relative viability: 0.287

## NCI-H460
Kb NB 142-70 + AZD7762; first compound 0.1 µM
  relative viability: 0.618
Kb NB 142-70 + AZD7762; first compound 1 µM
  relative viability: 0.904
Kb NB 142-70 + AZD7762; first compound 3.162 µM
  relative viability: 0.953
[1]; first compound 0.02 µM
  relative viability: 1.04
[1]; first compound 0.06325 µM
  relative viability: 1.06
[1]; first compound 0.2 µM
  relative viability: 1.09
[1]; first compound 0.6325 µM
  relative viability: 0.981
[1]; first compound 2 µM
  relative viability: 1.03
[2]; first compound 0.1 µM
  relative viability: 0.205
[2]; first compound 1 µM
  relative viability: 0.192
[2]; first compound 3.162 µM
  relative viability: 0.228

## NCI-H520
[1]; first compound 0.02 µM
  relative viability: 0.852
[1]; first compound 0.06325 µM
  relative viability: 0.831
[1]; first compound 0.2 µM
  relative viability: 0.677
[1]; first compound 0.6325 µM
  relative viability: 0.725
[1]; first compound 2 µM
  relative viability: 0.917
[2]; first compound 0.1 µM
  relative viability: 0.69
[2]; first compound 1 µM
  relative viability: 0.618
[2]; first compound 3.162 µM
  relative viability: 0.386

## NCI-H522
Kb NB 142-70 + AZD7762; first compound 0.1 µM
  relative viability: 0.959
Kb NB 142-70 + AZD7762; first compound 1 µM
  relative viability: 0.753
Kb NB 142-70 + AZD7762; first compound 3.162 µM
  relative viability: 0.746
[2]; first compound 0.1 µM
  relative viability: 0.799
[2]; first compound 1 µM
  relative viability: 0.617
[2]; first compound 3.162 µM
  relative viability: 0.566

## NCI-H596
Kb NB 142-70 + AZD7762; first compound 0.1 µM
  relative viability: 1.13
Kb NB 142-70 + AZD7762; first compound 1 µM
  relative viability: 1.09
Kb NB 142-70 + AZD7762; first compound 3.162 µM
  relative viability: 1.09
[1]; first compound 0.02 µM
  relative viability: 0.956
[1]; first compound 0.06325 µM
  relative viability: 0.796
[1]; first compound 0.2 µM
  relative viability: 0.724
[1]; first compound 0.6325 µM
  relative viability: 0.9
[1]; first compound 2 µM
  relative viability: 0.885
[2]; first compound 0.1 µM
  relative viability: 0.792
[2]; first compound 1 µM
  relative viability: 0.854
[2]; first compound 3.162 µM
  relative viability: 0.65

## NCI-H647
Kb NB 142-70 + AZD7762; first compound 0.1 µM
  relative viability: 0.412
Kb NB 142-70 + AZD7762; first compound 1 µM
  relative viability: 0.516
Kb NB 142-70 + AZD7762; first compound 3.162 µM
  relative viability: 0.537
[1]; first compound 0.02 µM
  relative viability: 1.23
[1]; first compound 0.06325 µM
  relative viability: 1.32
[1]; first compound 0.2 µM
  relative viability: 1.26
[1]; first compound 0.6325 µM
  relative viability: 1.12
[1]; first compound 2 µM
  relative viability: 1.12
[2]; first compound 0.1 µM
  relative viability: 0.505
[2]; first compound 1 µM
  relative viability: 0.51
[2]; first compound 3.162 µM
  relative viability: 0.597

## NCI-H650
Kb NB 142-70 + AZD7762; first compound 0.1 µM
  relative viability: 0.999
Kb NB 142-70 + AZD7762; first compound 1 µM
  relative viability: 1.09
Kb NB 142-70 + AZD7762; first compound 3.162 µM
  relative viability: 0.774
[1]; first compound 0.02 µM
  relative viability: 1.04
[1]; first compound 0.06325 µM
  relative viability: 1.07
[1]; first compound 0.2 µM
  relative viability: 1.02
[1]; first compound 0.6325 µM
  relative viability: 1.01
[1]; first compound 2 µM
  relative viability: 1.09
[2]; first compound 0.1 µM
  relative viability: 0.939
[2]; first compound 1 µM
  relative viability: 1.22
[2]; first compound 3.162 µM
  relative viability: 0.895

## NCI-H661
[1]; first compound 0.02 µM
  relative viability: 0.985
[1]; first compound 0.06325 µM
  relative viability: 0.985
[1]; first compound 0.2 µM
  relative viability: 1.04
[1]; first compound 0.6325 µM
  relative viability: 0.974
[1]; first compound 2 µM
  relative viability: 1.07
[2]; first compound 0.1 µM
  relative viability: 0.532
[2]; first compound 1 µM
  relative viability: 0.578
[2]; first compound 3.162 µM
  relative viability: 0.567

## NCI-H727
Kb NB 142-70 + AZD7762; first compound 0.1 µM
  relative viability: 0.531
Kb NB 142-70 + AZD7762; first compound 1 µM
  relative viability: 0.688
Kb NB 142-70 + AZD7762; first compound 3.162 µM
  relative viability: 0.769
[1]; first compound 0.02 µM
  relative viability: 0.912
[1]; first compound 0.06325 µM
  relative viability: 0.92
[1]; first compound 0.2 µM
  relative viability: 1.21
[1]; first compound 0.6325 µM
  relative viability: 1.07
[1]; first compound 2 µM
  relative viability: 1.04
[2]; first compound 0.1 µM
  relative viability: 0.419
[2]; first compound 1 µM
  relative viability: 0.367
[2]; first compound 3.162 µM
  relative viability: 0.316

## NCI-H838
Kb NB 142-70 + AZD7762; first compound 0.1 µM
  relative viability: 0.938
Kb NB 142-70 + AZD7762; first compound 1 µM
  relative viability: 0.925
Kb NB 142-70 + AZD7762; first compound 3.162 µM
  relative viability: 1
[1]; first compound 0.02 µM
  relative viability: 1.1
[1]; first compound 0.06325 µM
  relative viability: 1.02
[1]; first compound 0.2 µM
  relative viability: 1.12
[1]; first compound 0.6325 µM
  relative viability: 1
[1]; first compound 2 µM
  relative viability: 0.969
[2]; first compound 0.1 µM
  relative viability: 0.546
[2]; first compound 1 µM
  relative viability: 0.525
[2]; first compound 3.162 µM
  relative viability: 0.532

## NCI-H1299
[1]; first compound 0.02 µM
  relative viability: 1.16
[1]; first compound 0.06325 µM
  relative viability: 1.12
[1]; first compound 0.2 µM
  relative viability: 1.14
[1]; first compound 0.6325 µM
  relative viability: 1.04
[1]; first compound 2 µM
  relative viability: 1.15

## NCI-H1355
Kb NB 142-70 + AZD7762; first compound 0.1 µM
  relative viability: 0.776
Kb NB 142-70 + AZD7762; first compound 1 µM
  relative viability: 0.81
Kb NB 142-70 + AZD7762; first compound 3.162 µM
  relative viability: 1
[1]; first compound 0.02 µM
  relative viability: 0.954
[1]; first compound 0.06325 µM
  relative viability: 1.03
[1]; first compound 0.2 µM
  relative viability: 1.04
[1]; first compound 0.6325 µM
  relative viability: 1.02
[1]; first compound 2 µM
  relative viability: 0.981
[2]; first compound 0.1 µM
  relative viability: 0.384
[2]; first compound 1 µM
  relative viability: 0.387
[2]; first compound 3.162 µM
  relative viability: 0.447

## NCI-H1395
Kb NB 142-70 + AZD7762; first compound 0.1 µM
  relative viability: 0.4
Kb NB 142-70 + AZD7762; first compound 1 µM
  relative viability: 0.428
Kb NB 142-70 + AZD7762; first compound 3.162 µM
  relative viability: 0.501
[1]; first compound 0.02 µM
  relative viability: 1.12
[1]; first compound 0.06325 µM
  relative viability: 1.01
[1]; first compound 0.2 µM
  relative viability: 1.07
[1]; first compound 0.6325 µM
  relative viability: 1
[1]; first compound 2 µM
  relative viability: 0.981
[2]; first compound 0.1 µM
  relative viability: 1.02
[2]; first compound 1 µM
  relative viability: 0.891
[2]; first compound 3.162 µM
  relative viability: 1.02

## NCI-H1437
Kb NB 142-70 + AZD7762; first compound 0.1 µM
  relative viability: 1.14
Kb NB 142-70 + AZD7762; first compound 1 µM
  relative viability: 1.12
Kb NB 142-70 + AZD7762; first compound 3.162 µM
  relative viability: 1
[1]; first compound 0.02 µM
  relative viability: 1.26
[1]; first compound 0.06325 µM
  relative viability: 1.31
[1]; first compound 0.2 µM
  relative viability: 1.25
[1]; first compound 0.6325 µM
  relative viability: 1.28
[1]; first compound 2 µM
  relative viability: 1.22
[2]; first compound 0.1 µM
  relative viability: 0.601
[2]; first compound 1 µM
  relative viability: 0.704
[2]; first compound 3.162 µM
  relative viability: 0.502

## NCI-H1563
[1]; first compound 0.02 µM
  relative viability: 0.958
[1]; first compound 0.06325 µM
  relative viability: 1.04
[1]; first compound 0.2 µM
  relative viability: 0.94
[1]; first compound 0.6325 µM
  relative viability: 0.984
[1]; first compound 2 µM
  relative viability: 0.971

## NCI-H1623
[1]; first compound 0.02 µM
  relative viability: 1.02
[1]; first compound 0.06325 µM
  relative viability: 0.935
[1]; first compound 0.2 µM
  relative viability: 0.77
[1]; first compound 0.6325 µM
  relative viability: 0.84
[1]; first compound 2 µM
  relative viability: 0.923
